Data taken from PubChem BioAssay AID328 (DTP/NCI, 2004).
Where “and” joins values, the source holds several entries; their conditions need not be identical. Identical values can stand only once. Inconclusive results and toxic doses are left out.

Test system: BDF1 mice, P388 leukemia ip, median survival T/C
Assay: NCI In Vivo Anticancer Drug Screen. Data for tumor model P388 Leukemia (intraperitoneal) in B6D2F1 (BDF1) mice
Conditions: endpoint: median survival time, higher = longer survival
Procedure, shortened: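 T/C = treated-group survival ÷ vehicle-control survival; tumour transplanted into mice before dosing.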

[1] = dose: 12.5 mg/kg/injection, schedule: Q01DX009 (ip), vehicle: saline with Tween-80
[2] = dose: 25.0 mg/kg/injection, schedule: Q01DX009 (ip), vehicle: saline with Tween-80
[3] = dose: 50.0 mg/kg/injection, schedule: Q01DX009 (ip), vehicle: saline with Tween-80
[4] = dose: 100.0 mg/kg/injection, schedule: Q01DX009 (ip), vehicle: saline with Tween-80
[5] = dose: 200.0 mg/kg/injection, schedule: Q01DX009 (ip), vehicle: saline with Tween-80
[6] = dose: 100.0 mg/kg/injection, schedule: Q01DX001 (ip), vehicle: saline with Tween-80
[7] = dose: 200.0 mg/kg/injection, schedule: Q01DX001 (ip), vehicle: saline with Tween-80
[8] = dose: 6.25 mg/kg/injection, schedule: Q01DX009 (ip), vehicle: saline
[9] = dose: 100.0 mg/kg/injection, schedule: Q04DX003 (ip), vehicle: saline with Tween-80
[10] = dose: 200.0 mg/kg/injection, schedule: Q04DX003 (ip), vehicle: saline with Tween-80
[11] = dose: 50.0 mg/kg/injection, schedule: Q04DX003 (ip), vehicle: saline

COc1ccc(/C=C/NC=O)cc1
T/C (dose: 50.0 mg/kg/injection, schedule: Q04DX003 (ip), vehicle: other): 105 % of control | T/C (dose: 100.0 mg/kg/injection, schedule: Q04DX003 (ip), vehicle: other): 112 % of control | T/C (dose: 200.0 mg/kg/injection, schedule: Q04DX003 (ip), vehicle: other): 112 % of control | T/C (dose: 400.0 mg/kg/injection, schedule: Q04DX003 (ip), vehicle: other): 91 % of control

O=S(=O)(O)O
T/C (dose: 6.25 mg/kg/injection, schedule: Q01DX009 (ip), vehicle: water): 90 % of control | T/C [1]: 124 % of control | T/C (dose: 12.5 mg/kg/injection, schedule: Q01DX009 (ip), vehicle: water): 100 % of control | T/C (dose: 25.0 mg/kg/injection, schedule: Q04DX003 (ip), vehicle: water): 90 % of control | T/C (dose: 100.0 mg/kg/injection, schedule: Q04DX003 (ip), vehicle: water): 90 % of control

CC(C)CCNc1ncnc2c1cnn2C
T/C [2]: 100 % of control | T/C [3]: 100 % of control | T/C [4]: 109 % of control

CS(=O)(=O)CC(O)(c1ccc(Cl)cc1)c1ccccn1 (centres undefined)
T/C [3]: 91 % of control | T/C [4]: 91 % of control | T/C [5]: 97 % of control

CCOC(=O)CNC(=O)N(CC)C12CC3CC(CC(C3)C1)C2
T/C (dose: 100.0 mg/kg/injection, schedule: Q01DX009 (ip), vehicle: Klucel (hydroxypropylcellulose) (HPC)): 94 % of control | T/C (dose: 130.0 mg/kg/injection, schedule: Q01DX009 (ip), vehicle: Klucel (hydroxypropylcellulose) (HPC)): 111 % of control | T/C (dose: 200.0 mg/kg/injection, schedule: Q01DX009 (ip), vehicle: Klucel (hydroxypropylcellulose) (HPC)): 100 % of control | T/C (dose: 300.0 mg/kg/injection, schedule: Q01DX009 (ip), vehicle: Klucel (hydroxypropylcellulose) (HPC)): 109 % of control | T/C (dose: 400.0 mg/kg/injection, schedule: Q01DX009 (ip), vehicle: Klucel (hydroxypropylcellulose) (HPC)): 122 % of control

COC(=O)c1cccc(OP(=O)(N(C)C)N(C)C)c1
T/C [3]: 106 % of control | T/C [4]: 114 % of control

O=c1[nH]ncc2[nH]cnc12
T/C (dose: 6.25 mg/kg/injection, schedule: Q01DX009 (ip), vehicle: saline with Tween-80): 98 % of control | T/C [1]: 107 % of control | T/C [2]: 91 % of control | T/C [3]: 104 % of control

CC[C@H]1CN2CCc3cc(OC)c(OC)cc3[C@@H]2C[C@@H]1C[C@H]1NCCc2cc(O)c(OC)cc21
T/C (dose: 0.25 mg/kg/injection, schedule: Q01DX010 (ip), vehicle: saline): 159 % of control | T/C (dose: 0.5 mg/kg/injection, schedule: Q01DX010 (ip), vehicle: saline): 150 % of control | T/C (dose: 2.0 mg/kg/injection, schedule: Q01DX010 (ip), vehicle: saline): 150 % of control and 190 % of control | T/C (dose: 8.0 mg/kg/injection, schedule: Q01DX010 (ip), vehicle: saline): 95 % of control

CCOc1cc(Cl)c(N)c(Cl)c1
T/C [6]: 114 % of control | T/C [7]: 98 % of control

Nc1nc(N)c2cc(CNc3ccc(C(=O)NC(CC(=O)O)C(=O)O)cc3)ccc2n1 (centres undefined)
T/C (dose: 0.11 mg/kg/injection, schedule: Q01DX009 (ip), vehicle: saline): 112 % of control | T/C (dose: 0.38 mg/kg/injection, schedule: Q01DX009 (ip), vehicle: saline): 154 % of control | T/C (dose: 0.5 mg/kg/injection, schedule: Q01DX009 (ip), vehicle: saline): 183 % of control | T/C (dose: 1.0 mg/kg/injection, schedule: Q04DX003 (ip), vehicle: saline sonified): 213 % of control | T/C (dose: 2.0 mg/kg/injection, schedule: Q04DX003 (ip), vehicle: saline sonified): 204 % of control | T/C (dose: 5.5 mg/kg/injection, schedule: Q04DX003 (ip), vehicle: saline sonified): 161 % of control | T/C [8]: 95 % of control | T/C (dose: 8.25 mg/kg/injection, schedule: Q04DX003 (ip), vehicle: saline sonified): 177 % of control | T/C (dose: 25.0 mg/kg/injection, schedule: Q04DX003 (ip), vehicle: saline sonified): 96 % of control

CSc1cccc(NC(=O)Oc2ccc([N+](=O)[O-])cc2Cl)c1
T/C (dose: 12.5 mg/kg/injection, schedule: Q01DX009 (ip), vehicle: DMSO): 93 % of control | T/C (dose: 50.0 mg/kg/injection, schedule: Q01DX009 (ip), vehicle: DMSO): 89 % of control

CC(C)(C)OC(=O)NC(CCC(=O)O)(Cc1ccccc1)C(=O)NC(CCC(=O)OCc1ccccc1)C(=O)OCc1ccccc1 (centres undefined)
T/C (dose: 100.0 mg/kg/injection, schedule: Q01DX005 (ip), vehicle: saline with Tween-80): 86 % of control | T/C (dose: 200.0 mg/kg/injection, schedule: Q01DX005 (ip), vehicle: saline with Tween-80): 86 % of control

O=c1c2ccccc2nc(-c2ccccc2Cl)n1/N=C/c1cccc([N+](=O)[O-])c1
T/C [4]: 93 % of control | T/C [5]: 100 % of control

CCCCC(CC)COC(=O)CCC(CCC(=O)OCC(CC)CCCC)C(=O)OCC(CC)CCCC (centres undefined)
T/C [9]: 90 % of control | T/C [10]: 118 % of control | T/C (dose: 400.0 mg/kg/injection, schedule: Q04DX003 (ip), vehicle: saline with Tween-80): 95 % of control

COC(=O)c1c(Cl)c(Cl)c(Cl)c(Cl)c1C(=O)O
T/C [3]: 110 % of control

O=CNNC(=O)c1ccccn1
T/C [3]: 96 % of control | T/C (dose: 50.0 mg/kg/injection, schedule: Q01DX009 (ip), vehicle: saline): 100 % of control | T/C [11]: 100 % of control | T/C [4]: 96 % of control | T/C (dose: 100.0 mg/kg/injection, schedule: Q01DX009 (ip), vehicle: saline): 104 % of control | T/C [9]: 113 % of control | T/C (dose: 100.0 mg/kg/injection, schedule: Q04DX003 (ip), vehicle: saline): 100 % of control | T/C [5]: 96 % of control | T/C [10]: 109 % of control | T/C (dose: 200.0 mg/kg/injection, schedule: Q04DX003 (ip), vehicle: saline): 100 % of control

CC(=O)c1ccc(Oc2ccc(/C(C)=N\N=C(N)N)cc2)cc1
T/C [8]: 111 % of control | T/C (dose: 12.5 mg/kg/injection, schedule: Q01DX009 (ip), vehicle: saline): 112 % of control and 117 % of control | T/C (dose: 16.0 mg/kg/injection, schedule: Q01DX009 (ip), vehicle: saline): 116 % of control | T/C (dose: 25.0 mg/kg/injection, schedule: Q01DX009 (ip), vehicle: saline): 110 % of control

COc1ccc(OC)c(/C=N/N=C/c2cc(OC)ccc2OC)c1
T/C [6]: 104 % of control | T/C [7]: 100 % of control | T/C (dose: 400.0 mg/kg/injection, schedule: Q01DX001 (ip), vehicle: saline with Tween-80): 104 % of control

CCNC(=NC)c1ccc(NC(=O)c2ccc(C(=O)Nc3ccc(C(=NC)NCC)cc3)cc2)cc1
T/C (dose: 3.9 mg/kg/injection, schedule: Q01DX009 (ip), vehicle: saline with Tween-80): 118 % of control | T/C (dose: 4.0 mg/kg/injection, schedule: Q01DX009 (ip), vehicle: saline with Tween-80): 179 % of control | T/C (dose: 9.0 mg/kg/injection, schedule: Q01DX009 (ip), vehicle: saline with Tween-80): 109 % of control

Cc1ccc(N2C(=O)C=CC2=O)cc1
T/C (dose: 5.0 mg/kg/injection, schedule: Q01DX009 (ip), vehicle: saline sonified): 100 % of control | T/C (dose: 10.0 mg/kg/injection, schedule: Q01DX009 (ip), vehicle: saline sonified): 119 % of control | T/C (dose: 20.0 mg/kg/injection, schedule: Q01DX009 (ip), vehicle: saline sonified): 100 % of control

CSC1SCC2C(=O)N(C)C(C(C)C)C(=O)OCC(NC(=O)c3cnc4ccccc4n3)C(=O)NC(C)C(=O)N(C)C1C(=O)N(C)C(C(C)C)C(=O)OCC(NC(=O)c1cnc3ccccc3n1)C(=O)NC(C)C(=O)N2C (centres undefined)
T/C (dose: 0.4 micrograms/kg/injection, schedule: Q01DX009 (ip), vehicle: saline with Tween-80): 86 % of control | T/C (dose: 0.9 micrograms/kg/injection, schedule: Q01DX009 (ip), vehicle: saline with Tween-80): 89 % of control | T/C (dose: 1.9 micrograms/kg/injection, schedule: Q01DX009 (ip), vehicle: saline with Tween-80): 112 % of control | T/C (dose: 3.8 micrograms/kg/injection, schedule: Q01DX009 (ip), vehicle: saline with Tween-80): 96 % of control | T/C (dose: 5.0 micrograms/kg/injection, schedule: Q01DX010 (ip), vehicle: saline): 118 % of control | T/C (dose: 20.0 micrograms/kg/injection, schedule: Q01DX010 (ip), vehicle: saline): 95 % of control | T/C (dose: 30.0 micrograms/kg/injection, schedule: Q01DX009 (ip), vehicle: saline with Tween-80): 175 % of control

CCOC(=O)C[P+](c1ccccc1)(c1ccccc1)c1ccccc1
T/C (dose: 12.5 mg/kg/injection, schedule: Q04DX003 (ip), vehicle: saline): 102 % of control | T/C (dose: 25.0 mg/kg/injection, schedule: Q04DX003 (ip), vehicle: saline): 102 % of control | T/C [11]: 96 % of control
